# From PMC5554537 (Frontiers in Pharmacology, 2017)
# Where “and” joins values, the source holds several entries; their conditions need not be identical. Equal values may be shown once. Read-outs that look alike come from different tables or passages of the source.
# Experiments:
# [1] = Plasma, liver and brain PK after i.p. dosing with M14; format: in vivo; details: i.p. M14 135 mg/kg; for Cmax / half-life: NIH-III nude, mouse, in vivo, ip, 135 mg/kg; for Cmax: read-out: Cmax; for half-life: read-out: Terminal T1/2
# Procedure: Concentration-time data were analyzed by non-compartmental analysis using Phoenix WinNonlin (ver 6.4, Build 6.4.0768 Pharsight, United States); all AUC values were extrapolated to infinity using the linear trapezoidal rule. A compartmental model for plasma PK after dosing with SN30000 or M14 was fitted using Phoenix NLME v1.3 with random effects on the metabolite volumes of distribution, and temperature effects based on the observed body temperature at the last measurement time. Temperature effects were added or removed until there was no significant change in the log likelihood. Model fits were further assessed by visual inspection of the residuals and predicted PK.
# [2] = target: T1, mouse brain acetylcholinesterase (Mus musculus, UniProt P21836); experiment: biochemical; details: mouse brain homogenate, 37°C
# T1 construct: from tissue; host or cells: mouse brain homogenate
# T1 sequence (P21836 32-614): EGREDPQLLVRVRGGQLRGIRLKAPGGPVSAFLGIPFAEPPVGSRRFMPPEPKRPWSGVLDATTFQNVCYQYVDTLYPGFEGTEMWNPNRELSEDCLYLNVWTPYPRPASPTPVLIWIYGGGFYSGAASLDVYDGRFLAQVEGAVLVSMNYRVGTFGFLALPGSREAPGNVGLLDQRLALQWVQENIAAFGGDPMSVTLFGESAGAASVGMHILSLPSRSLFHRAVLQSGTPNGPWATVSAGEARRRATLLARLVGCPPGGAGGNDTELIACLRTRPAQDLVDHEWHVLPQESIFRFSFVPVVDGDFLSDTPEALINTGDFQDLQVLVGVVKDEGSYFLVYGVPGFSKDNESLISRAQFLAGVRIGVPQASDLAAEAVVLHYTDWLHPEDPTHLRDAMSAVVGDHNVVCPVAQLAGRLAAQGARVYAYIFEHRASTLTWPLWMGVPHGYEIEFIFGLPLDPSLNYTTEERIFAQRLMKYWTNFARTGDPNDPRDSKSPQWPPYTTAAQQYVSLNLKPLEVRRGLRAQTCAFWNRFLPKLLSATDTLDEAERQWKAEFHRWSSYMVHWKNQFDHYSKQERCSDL
# Procedure: TABLE 10: Inhibition of mouse brain acetylcholinesterase activitya by SN30000 and related compounds […]
# aThe acetylcholinesterase inhibition assay is based on Obregon et al., 2005. Mouse brain homogenate was prepared in potassium phosphate buffer (100 mM, pH 7.4), which was pre-incubated with dithiobisnitrobenzoate (final concentration 1 mM) at 37°C for 10 min. After adding acetylthiocholine (final concentration 0.6 mM), the formation of 5-thio-2-nitrobenzoate was measured by monitoring absorbance (Spectramax- M2 spectrophotometer) at 412 nm every 30 s for 10 min. Negative controls (DMSO or saline) and positive control […]
# IC50 values are based on 3-4 deter minations per compound.
# [3] = Stability in mouse plasma (QC samples); format: physicochemical
# Text: using octa-deuterated internal standards of SN30000, M13 and M14 synthesised as previously reported (Wang et al., 2012). Intra- and inter-day precision (expressed as relative standard deviation (RSD) and accuracy (expressed as percentage of the nominal value) were deter mined by analy sis of replicates (n=6) of low and high quality control (QC) samples on three different days. The lower limit of quantitation (LLOQ) was defined as the lowest concentration providing RSD and accuracy < 20%. Recovery from plasma and liver ho mogenates was tested at the three QC levels. The recoveries were evaluated by comparing extracted samples with blank extracted solutions spiked with analytes of the same amount.
# Matrix effects, defined as the change in response due to the presence of other substances in the samples, were evaluated by comparing the analytes diluted into the blank plasma or liver extracted solution with that of the same stock solutions diluted in water. Three different concentration levels (low, medium and high QC) were evaluated by analysing three samples at each level. Accuracy , precision, recovery and matrix effects were all acceptable over the concentration ranges evaluated for plas ma (Supplementary Table 1) and for liver homogenates (Supplementary Table 2).
# Stability of the analytes in mouse plasma (Supplementary Table 3) or liver homogenate (Supplementary Table 4) was confirmed during holding of QC samples on ice for up to 2 h under nor mal laboratory lighting, although there was a trend towards loss of SN30000 in plasma samples held in clear microcentrifuge tubes which may reflect the known photosensitivity of the compound (Gu et al., 2014). This loss was reduced by use of red microcentrifuge tubes, and eliminated by black tubes. Stability in both matrices was also confir med for one month storage at -80°C and for three freeze-thaw cycles, while MeOH-deproteinised samples w ere stable for 12 h at 4°C in the autosampler (Supplementary Tables
# [4] = i.p. SN30000 186 mg/kg
# [5] = plasma deproteinised in 3 vol MeOH, 12 h autosampler at 4°C, nominal SN30000 0.5, M14 0.25, M13 0.1 µM
# [6] = plasma deproteinised in 3 vol MeOH, 12 h autosampler at 4°C, nominal SN30000 5, M14 2.5, M13 1 µM
# [7] = plasma deproteinised in 3 vol MeOH, 12 h autosampler at 4°C, nominal SN30000 50, M14 25, M13 10 µM
# [8] = plasma, 1 month at -80°C, nominal SN30000 0.5, M14 0.25, M13 0.1 µM
# [9] = plasma, 1 month at -80°C, nominal SN30000 5, M14 2.5, M13 1 µM
# [10] = plasma, 1 month at -80°C, nominal SN30000 50, M14 25, M13 10 µM
# [11] = plasma, 1 h on ice, black vial, nominal SN30000 0.5, M14 0.25, M13 0.1 µM
# [12] = plasma, 1 h on ice, black vial, nominal SN30000 5, M14 2.5, M13 1 µM
# [13] = plasma, 1 h on ice, black vial, nominal SN30000 50, M14 25, M13 10 µM
# [14] = plasma, 1 h on ice, clear vial, nominal SN30000 0.5, M14 0.25, M13 0.1 µM
# [15] = plasma, 1 h on ice, clear vial, nominal SN30000 5, M14 2.5, M13 1 µM
# [16] = plasma, 1 h on ice, clear vial, nominal SN30000 50, M14 25, M13 10 µM
# [17] = plasma, 1 h on ice, red vial, nominal SN30000 0.5, M14 0.25, M13 0.1 µM
# [18] = plasma, 1 h on ice, red vial, nominal SN30000 5, M14 2.5, M13 1 µM
# [19] = plasma, 1 h on ice, red vial, nominal SN30000 50, M14 25, M13 10 µM
# [20] = plasma, 2 h on ice, black vial, nominal SN30000 0.5, M14 0.25, M13 0.1 µM
# [21] = plasma, 2 h on ice, black vial, nominal SN30000 5, M14 2.5, M13 1 µM
# [22] = plasma, 2 h on ice, black vial, nominal SN30000 50, M14 25, M13 10 µM
# [23] = plasma, 2 h on ice, clear vial, nominal SN30000 0.5, M14 0.25, M13 0.1 µM
# [24] = plasma, 2 h on ice, clear vial, nominal SN30000 5, M14 2.5, M13 1 µM
# [25] = plasma, 2 h on ice, clear vial, nominal SN30000 50, M14 25, M13 10 µM
# [26] = plasma, 2 h on ice, red vial, nominal SN30000 0.5, M14 0.25, M13 0.1 µM
# [27] = plasma, 2 h on ice, red vial, nominal SN30000 5, M14 2.5, M13 1 µM
# [28] = plasma, 2 h on ice, red vial, nominal SN30000 50, M14 25, M13 10 µM
# [29] = plasma, three freeze-thaw cycles, nominal SN30000 0.5, M14 0.25, M13 0.1 µM
# [30] = plasma, three freeze-thaw cycles, nominal SN30000 5, M14 2.5, M13 1 µM
# [31] = plasma, three freeze-thaw cycles, nominal SN30000 50, M14 25, M13 10 µM
# [32] = HT29 tumour, tumour-bearing mice
# [33] = liver, HT29 tumour-bearing mice
smiles,measurement,setting,value
[O-][n+]1nc(CCCN2CCOCC2)nc2cc3c(cc21)CCC3 [M14],Cmax,[1]; brain,260 ± 29 µM
same,half-life,[1]; brain,20.1 min
same,Cmax,[1]; liver,319 ± 46.1 µM
same,half-life,[1]; liver,25.1 min
same,Cmax,[1]; plasma,95.6 ± 9.8 µM
same,half-life,[1]; plasma,30.8 min
same,AUC,[1]; brain,108.3 µmol·h/kg
same,AUC,[1]; liver,131.1 µmol·h/kg
same,AUC,[1]; plasma,36.6 µmol·h/kg
same,IC50,[2],58.3 µM and 58 µM
same,Bias,[3]; [5],-3.45%
same,Measured conc,[3]; [5],0.24 µM
same,Bias,[3]; [6],-1.00%
same,Measured conc,[3]; [6],2.48 µM
same,Bias,[3]; [7],5.16%
same,Measured conc,[3]; [7],26.29 µM
same,Bias,[3]; [8],1.83%
same,Measured conc,[3]; [8],0.23 µM
same,Bias,[3]; [9],1.63%
same,Measured conc,[3]; [9],2.42 µM
same,Bias,[3]; [10],1.59%
same,Measured conc,[3]; [10],26.65 µM
same,Bias,[3]; [11],-6.07%
same,Measured conc,[3]; [11],0.23 µM
same,Bias,[3]; [12],-9.84%
same,Measured conc,[3]; [12],2.25 µM
same,Bias,[3]; [13],3.20%
same,Measured conc,[3]; [13],25.80 µM
same,Bias,[3]; [14],-6.07%
same,Measured conc,[3]; [14],0.23 µM
same,Bias,[3]; [15],-2.06%
same,Measured conc,[3]; [15],2.45 µM
same,Bias,[3]; [16],-2.50%
same,Measured conc,[3]; [16],24.37 µM
same,Bias,[3]; [17],-3.25%
same,Measured conc,[3]; [17],0.24 µM
same,Bias,[3]; [18],-4.29%
same,Measured conc,[3]; [18],2.39 µM
same,Bias,[3]; [19],0.26%
same,Measured conc,[3]; [19],25.07 µM
same,Bias,[3]; [20],-2.23%
same,Measured conc,[3]; [20],0.24 µM
same,Bias,[3]; [21],-2.62%
same,Measured conc,[3]; [21],2.43 µM
same,Bias,[3]; [22],-2.33%
same,Measured conc,[3]; [22],24.42 µM
same,Bias,[3]; [23],-5.90%
same,Measured conc,[3]; [23],0.24 µM
same,Bias,[3]; [24],0.51%
same,Measured conc,[3]; [24],2.51 µM
same,Bias,[3]; [25],-2.43%
same,Measured conc,[3]; [25],24.39 µM
same,Bias,[3]; [26],-3.27%
same,Measured conc,[3]; [26],0.24 µM
same,Bias,[3]; [27],-0.72%
same,Measured conc,[3]; [27],2.48 µM
same,Bias,[3]; [28],0.70%
same,Measured conc,[3]; [28],25.17 µM
same,Bias,[3]; [29],-4.07%
same,Measured conc,[3]; [29],0.24 µM
same,Bias,[3]; [30],-3.19%
same,Measured conc,[3]; [30],2.42 µM
same,Bias,[3]; [31],3.92%
same,Measured conc,[3]; [31],25.98 µM
same,Concentrations in brain compared with plasma,[4],higher in brain than plasma
same,AUC (extrapolated to infinity),[4]; [32],136 µmol·h/kg
same,Cmax,[4]; [32],46.0 ± 3.9 µmol/kg
same,AUC (extrapolated to infinity),"[4]; brain, non-tumour-bearing mice",126 µmol·h/kg
same,Cmax,"[4]; brain, non-tumour-bearing mice",162 ± 0 µmol/kg
same,AUC (extrapolated to infinity),[4]; [33],305 µmol·h/kg
same,Cmax,[4]; [33],371 ± 26 µmol/kg
same,AUC (extrapolated to infinity),"[4]; liver, non-tumour-bearing mice",350 µmol·h/kg
same,Cmax,"[4]; liver, non-tumour-bearing mice",469 ± 27 µmol/kg
same,AUC (extrapolated to infinity),"[4]; plasma, HT29 tumour-bearing mice",27. 6 µmol. hr/kg
same,AUC (extrapolated to infinity),"[4]; plasma, non-tumour-bearing mice",26.4 µmol·h/kg
